In brackets after ≈: the same amount, converted by molar mass. Several values for one entry are separate records, joined by “and”; a condition that tells them apart may be missing. Identical values can stand only once. Like-named read-outs stand apart in the source and are kept apart here.
Assays:
[1] = system: Herpes simplex virus 1, strain E-377; assay: HSV-1 cytopathic effect reduction assay; format: cell-based
[2] = system: Human cytomegalovirus, strain GDGr K17 (resistant isolate); assay: HCMV resistant isolate cytopathic effect reduction assay; format: cell-based; conditions: for EC50 / EC90: Human betaherpesvirus 5, HFF; for EC50: read-out: EC50 (reduced viral replication by 50%); for EC90: read-out: EC90 (reduced viral replication by 90%)
P. aeruginosa = conditions: cited from earlier work
E. coli = conditions: cited from earlier work
[3] = system: Acinetobacter baumannii ATCC 19606; assay: Antibacterial growth inhibition / MIC; conditions: hit confirmation
[4] = system: Klebsiella pneumoniae ATCC 700603 (MDR); assay: Antibacterial growth inhibition / MIC; format: cell-based; conditions: hit confirmation
S. aureus and MRSA = conditions: cited from earlier work
HIV-1 = conditions: read-out: EC50, inhibition of infectivity of HIV-1 in vitro; cited from earlier work
[5] = system: Human papillomavirus 11, strain HE611260.1; assay: HPV-11 NanoLuc reporter replication assay; format: cell-based
[6] = Cytotoxicity in C-33 A cells; format: cell-based; conditions: human

Compound: Nc1nc2c(ncn2COCCO)c(=O)[nH]1 [Acyclovir]
- SI50 selectivity index (CC50/EC50) ([1]; HSV-1 E-377, HFF cells): >172 and >181
- EC90 ([1]; Human alphaherpesvirus 1, HFF, read-out: EC90 (reduced viral replication by 90%)): > 150000 nM
- EC50 ([1]; read-out: EC50 (reduced viral replication by 50%), HSV-1 E-377, HFF cells): 830 nM

Compound: Nc1ccn(C[C@@H](CO)OCP(=O)(O)O)c(=O)n1 [Cidofovir]
- SI50 selectivity index (CC50/EC50) ([2]; HCMV GDGr K17 (resistant isolate), HFF cells): 120
- EC50 [2]: 920 nM
- EC90 [2]: > 30000 nM

Compound: CC1(C)CCC2(C(=O)NCCNCCN)CCC3(C)C(=CCC4C5(C)CCC(=O)C(C)(C)C5CCC43C)C2C1 (stereo not shown) [Oleanonic acid amide with diethylentriamine]
- MIC (P. aeruginosa): 50 µM (≈ 27 µg/mL)
- MIC (E. coli): 25 µM (≈ 13.5 µg/mL)

Compound: Colistin sulfate
- MIC, A. baumannii [3]: 0.15 µM
- MIC, K. pneumoniae [4]: 0.15 µM

Compound: C[C@H]1[C@H](C)CC[C@]2(C(=O)O)CC[C@]3(C)C(=CC[C@@H]4[C@@]5(C)CC[C@H](O)C(C)(C)[C@@H]5CC[C@]43C)[C@H]12 [ursolic acid]
- MIC (S. aureus and MRSA; MRSA strain): 64 µg/mL (≈ 140 µM)

Compound: Nc1nc(O)c2ncn(COC(CO)CO)c2n1 [Ganciclovir]
- EC50 [2]: > 150000 nM
- EC90 [2]: > 150000 nM

Compound: C=C(C)[C@@H]1CC[C@]2(C(=O)O)CC[C@]3(C)[C@H](CC[C@@H]4[C@@]5(C)CC[C@H](O)C(C)(C)[C@@H]5CC[C@]43C)[C@@H]12 [betulinic acid]
- EC50 (HIV-1): 1400 nM

Compound: 3-amino-3,4-seco-28-amino-lup-4(23),20(29)-dien
- MIC (S. aureus and MRSA; MRSA, bacteriostatic effect): ≤ 0.25 µg/mL

Compound: Nc1nc2c(ncn2CCOCP(=O)(O)O)c(=O)[nH]1 [9-[2-(Phosphonomethoxy)ethyl]guanine]
- SI50 selectivity index (CC50/EC50) ([5]; HPV-11, C-33 A cells): >221
- EC50 ([5]; human papillomavirus 11, C-33-A, read-out: EC50 (reduced viral replication by 50%)): 680 nM
- EC90 ([5]; human papillomavirus 11, C-33-A, read-out: EC90 (reduced viral replication by 90%)): 101000 nM
- CC50 [6]: > 150000 nM

Reference: publication PMC8273037 (The Journal of Antibiotics, 2021)
